Source: patent publication US20240342138A1, “MICROTUBULE TARGETING AGENTS” (BPGbio, Inc., priority 2023, published 2024)

Experiments:
[1] = Blood brain barrier permeability (PVDF membrane coated with porcine brain polar lipid extract); assay type: in vitro ADME; settings: for recovery at 4 h, 10 μM: pig, not told
Procedure: Preparation of Donor Solution a) 0.2 mM working solution was prepared by diluting 10 mM stock solution with DMSO. b) 10 μM donor solution (5% DMSO) was prepared by diluting 20 μL of working solution with 380 μL PBS. 2) 150 μL of 10 μM donor solutions to each well of the donor plate, whose PVDF membrane was precoated with 5 μL of 1% brain polar lipid extract (Porcine)/dodecane mixture. Duplicates were prepared. 3) 300 μL of PBS was added to each well of the PTFE acceptor plate. 4) The donor plate and acceptor plate were combined together and incubated for 4h at room temperature with shaking at 300 rpm. 5) Preparation of TO sample: 20 μL donor solution was transferred to new well followed by the addition of 250 μL PBS (DF: 13.5), 130 μL ACN (containing internal standard) as TO sample. 6) Preparation of acceptor sample: The plate was removed from incubator. 270 μL solution was transferred from each acceptor well and mixed with 130 μL ACN (containing internal standard) as acceptor sample. 7) Preparation of donor sample: […] was transferred from each donor well and mixed with 250 μL PBS (DF: 13.5), 130 μL ACN (containing internal standard) as donor sample. 8) Acceptor samples and donor samples were all analyzed by LC/MS/MS.

[2] = tested on: Triple Negative Breast Cancer patient-derived organoids CTG-1520, CTG-0896, CTG-1017; test: Viability of PDO models of taxane resistance (CellTiter-Glo, 5 days); assay type: cell-based, human; settings: same patient before (CTG-1017) and after (CTG-1520) taxane-based chemotherapy
Procedure: FIGS. 9A and 9B show potency of Compound 1 in patient-derived organoid (PDO) models of taxane resistance. Patient-derived organoids were treated with Compound 1, paclitaxel or controls (0.1% DMSO, positive control—10% DMSO) for 5 days. Viability was assessed using the CellTiter-Glo® assay. IC50 and maximal (max) inhibition values were extrapolated from the viability curves. A) Model overview and dose response curves to Compound 1 and paclitaxel. B) Summary of CellTiter-Glo results in all three models tested. Compiled data of N=4 replicates.
CTG-1520 and CTG-0896 were derived from Triple Negative Breast Cancer (TNBC) patients post-treatment, and progression on a taxane-based therapy and the models' resistance to paclitaxel was confirmed by testing in vivo PDX (Patient-derived xenograft) tumor growth. […] Compound 1 and paclitaxel were tested head-to-head in each model in a dose-curve setting. 10% DMSO was used as the positive control for induction of 100% cell cytotoxicity.

[3] = tested on: Triple Negative Breast Cancer patient-derived organoids CTG-1520, CTG-0896, CTG-1017; settings: CTG-1520 ex vivo; Champion Oncology Lumen Platform database; cited from earlier work
CTG-1520 PDX tumors = settings: CTG-1520 in vivo; Champion Oncology Lumen Platform database; cited from earlier work
CTG-1017 = settings: CRO historical data; cited from earlier work
[4] = tested on: colchicine binding site of tubulin; test: EBI labeling assay in MIA PaCa2 cells (Western blot); assay type: cell-based; settings: 2 hours compound, then 2 hours 100 μM EBI, FIG. 2, FIG. 3
Procedure: MIA PaCa2 cells were cultured in DMEM+10% FBS and 1% P/S. Cells were plated at 1.5-2×10^6 in 60 mm dishes. For drug treatments, cells were treated the day after plating with 0.1% DMSO or the compounds tested at the concentrations indicated in FIG. 2 for 2 hours.
• Cells were treated with compounds for 2 hours at 37°, 5% CO2 (in the cell culture incubator), and then for an additional 2 hours with 100 μM EBI (with compounds present) under the same conditions. • Cells were then harvested with Trypsin and pelleted at 500 g for 3 minutes. • Cells were rinsed in 1 mL PBS and transferred to clean epi tubes. […] BCA assay plates were incubated for 15 minutes in the 37-degree incubator in the outer molecular lab. • After protein normalization (including addition of reducing Laemmli buffer from a 6× stock) samples were boiled at 95 degrees for 3 minutes and frozen for subsequent Western Blotting.
Significance in difference of treated MIA PaCa-2 cells to 0.1% DMSO treated cells were tested by Student t test (* p<0.05; ** p<0.01; *** p<0.001).

HCT116 cells = test: Kinetochore assembly, immunocytochemistry / confocal microscopy; assay type: cell-based; settings: 300 nM, 24h
Procedure: The HCT116 cells were cultured using DMEM media supplemented with 10% FBS and 1% Pen/Strep. Cells were maintained to a maximum of 80% confluency before being split and plated into coverslips in 12-well plates.
1. HCT116 cells were plated on Poly-D-Lysine German Glass Coverslips (#1.5, 18 mm)
2. After 24h cells were treated with 300 nM of Compound 1 and Nocodozole.
3. After 24h cells were washed briefly with PBS and fixed with warm 4% paraformaldehyde at room temperature for 10 min.
4. Cells were permeabilized and blocked in 10% goat serum, 0.5% Triton-X in PBS for 1 hr.
5. Cells were incubated with Primary antibodies overnight.
6. Washed 3× with PBS for 10 min
7. Incubated with secondary antibodies at room temperature for 1 hr.
8. Washed 3× with PBS for 10 min
9. Coverslips were mounted with ProLong Gold Anti-Fade Mount with DAPI and imaged with Olympus FV1200 MPE Microscope.
10. Images were collected with identical confocal settings for all of the samples and Z-stacked images were projected with maximal projection mode using Fluor View Software.
1. Selected cells of interest using the drawing/selection tools (i.e. rectangle, circle, polygon or freeform).
2. From the Analyze menu selected “Measure.”
3. Selected region with no fluorescence to be my background.
4. Repeated these steps for other cells in the field of view
5. Used the CTCF formula to calculate Mad1 expression:
CTCF=Integrated Density−(Area of selected cell×Mean fluorescence of background readings)
Micrographs were imaged using Olympus FV1200 MPE confocal microscope at 63× oil. White arrows indicate dividing cells. Representative images of N=3 biological replicates. Significance in difference of treated HCT116 cells to untreated cells was tested by Student t test (** p<0.01).

For `CC(C)NCC(O)COc1cccc2ccccc12` (centres unmarked) [Propranolol, reference compound], the Permeability ([1]; 10 μM, 4 h) was “High”, the Papp at 4 h, 10 μM ([1]; PAMPA, read-out: Mean Pe) was 4.74 ×10⁻⁶ cm/s and the recovery at 4 h, 10 μM [1] was 27.7%.

In the case of `CC(=O)O[C@H]1C(=O)[C@@]2(C)[C@H]([C@H](OC(=O)c3ccccc3)[C@]3(O)C[C@H](OC(=O)[C@H](O)[C@@H](NC(=O)c4ccccc4)c4ccccc4)C(C)=C1C3(C)C)[C@]1(OC(C)=O)CO[C@@H]1C[C@@H]2O` [paclitaxel], the “Retention of potency in matched PDO models” value [2] is given as “did not”, the max effect [3] is given as 29.1% and the TGI (CTG-1520 PDX tumors) is given as 10%. For the same compound, the “Sensitivity of model in vivo” value (CTG-1017) was “sensitive”.

With `CC(C)NCC(O)COc1ccc(CC(N)=O)cc1` (centres unmarked) [Atenolol, reference compound] the recovery at 4 h, 10 μM [1] was under 100%.

With `COC(=O)Nc1nc2cc(C(=O)c3cccs3)ccc2[nH]1` [nocodazole, reference compound] the “Formation of EBI:β-tubulin adducts” value [4] was “inhibited formation of the EBI:β-tubulin adducts”, the Mitotic spindle formation (HCT116 cells; FIG. 4A) was “lack of proper mitotic spindle formation” and the Mad1 signal intensity (HCT116 cells; FIG. 4B) was “increase in Mad1 signal intensity”.
